Data published in patent publication US20220202912A1, “Polypeptides in Preparation of Drugs for Treatment or Prevention of Rheumatoid Arthritis” (priority 2011, published 2022).
“And” between values parts separate entries of the source, which are not always exact repeats. Equal entries are not always repeated. Where no end group is shown, it is not given here.

Experiments:
[1] = tested on: CIA transgenic TNF-luc mice; assay: collagen type II-induced arthritis in transgenic TNF-luc mice (swelling, scores, weight); assay type: in vivo, BALB/c transgenic TNF-luc mice; set-up: key to joint index score / arthritis index score: 0–4 per paw, four paws summed, max 16; key to swelling degree of right ankle: cm, day n thickness minus initial ankle thickness; key to systemic score: systemic score points, max 8; conditions: for left ankle swelling / right ankle swelling changes / arthritis index score / clinical score: Adalimumab 8 mg/kg, mPEG-SC20k-HM-3 20 mg/kg; for right ankle swelling changes: CIA TNF-luc mice; for right ankle swelling changes / arthritis index score / clinical score: mean ± SD; for arthritis index score / clinical score: CIA chronic model; for systemic score / joint index score / swelling degree of right ankle: 20 mg/kg
Experimental: 8 animals are randomly divided into 4 groups (n=2), a normal group, a model group, a positive drug group and a test group. On day 0, for the primary immunization, mice are hypodermically injected with 50 μL collagen emulsifier (containing CII 100 μg/ mouse) at the tail root of mice for sensitization. On day 0, initial ankle widths, initial foot palm widths and initial toe thicknesses of left and right feet of mice in each group are measured separately.
After day 21, the same dosage of emulsifier is used for second immunization at the tail root. After the symptoms such as redness and swelling of joints appear on the four toes of mice, continuous administration is performed for 15 days. The normal group and the model group are separately hypodermically injected with 0.9% normal saline (0.2 mL/20 g of body weight), once every 2 days, 7 times in total. The positive drug Adalimumab group is hypodermically injected with Adalimumab (8 mg/kg of body weight), once every 15 days, once in total. The test treatment group is hypodermically injected with mPEG-SC20k-HM-3 (20 mg/kg of body weight), once every 2 days, 7 times in total.
Every 2 days, the thickness of the ankle, the width of the foot palm and the thickness of the toes of each group of mice are measured with a vernier caliper.
Swelling degree of left ankle (cm)=swelling thickness of left ankle on day n of the experiment−measured initial thickness of left ankle.
Swelling degree of right ankle (cm)=swelling thickness of right ankle on day n of the experiment−measured initial thickness of right ankle.
The joints of the mouse paw are observed with naked eyes, and the joints are scored every 2 days from day 30. Scoring is performed in terms of level 0 to level 4, 5 levels in total. 0=no erythema or swelling; 1=slight erythema or swelling, with erythema or swelling on one of the front/hind toe joints; 2=erythema or swelling on more than one toe; 3=swelling of paw beneath the ankle or wrist joint; 4=swelling of all paws including the ankle joint. Four paws of the mice are scored separately, and the highest score is 16 points.
After the secondary inflammation appears, systemic scoring is performed every 2 days, and the scoring standards are as follows:
Hind foot: no swelling=0 point, swelling of one hind foot=1 point, swelling of two hind feet=2 points.
Front foot: no swelling=0, swelling of one front foot=1 point, swelling of two front feet=2 points.
Ears: no redness symptoms and nodules=0 point, redness symptoms or nodules of one ear=1 point, red symptoms and nodules of two ears=2 points.
Nose: no swelling=0 point, obvious swelling=1 point.
Tail: no nodule=0 point, nodules=1 point; the highest score is 8 points.

TNF-α [2] = assay: immunohistochemistry of TNF-α in ankle joints, CIA transgenic TNF-luc mice; assay type: in vivo, BALB/c transgenic TNF-luc mice; conditions: Adalimumab 8 mg/kg, mPEG-SC20k-HM-3 20 mg/kg
Experimental: Determining criteria: The experimental results are determined based on the proportion of positive cells in all tissue cells and the staining intensity of positive cells: A: scoring is performed based on the number of chromogenic cells, 1 point is given when the proportion of the number of positive cells is less than ⅓, 2 points are given when the proportion of the number of positive cells is ⅓-⅔, and 3 points are given when the proportion of the number of positive cells is greater than or equal to ⅔. B: Based on the color depth of cells, 0 point is given when no cells have positive reaction, 1 point is given when cells are light yellow, 2 points are given when the cells are light brown, and 3 points are given when the cells are dark brown. Point product=A×B. The result is expressed in point product.

TNF-α [3] = assay: in vivo imaging of TNF-α expression, CIA transgenic TNF-luc mice; set-up: species or system BALB/c transgenic TNF-luc mice; conditions: day 36; Adalimumab 8 mg/kg, mPEG-SC20k-HM-3 20 mg/kg
Experimental: […] After the mice are lightly anesthetized with ether, the mice are fixed within 5-20 min and put into an in vivo imager, the imager is covered with an instrument lid, on-fluro and om-photo names in the desktop imaging interface of the computer are clicked, and the expose button is clicked to complete the fluorescence and white light photos of mice in vivo imaging. The specific imaging principle, operation steps, image processing and output are the same as those in the previous embodiment.

TNF-α [4] = assay: immunohistochemistry of TNF-α in ankle joints, AIA transgenic TNF-luc mice; assay type: in vivo, BALB/c transgenic TNF-luc mice; conditions: Adalimumab 8 mg/kg, mPEG-SC20k-HM-3 20 mg/kg
Experimental: (§1) Changes of expression of TNF-α and IL-6 are analyzed by HE staining and immunohistochemistry in the ankle joint, spleen and thymus of the mice. Observation and photographing are performed under the FOVs of ×200 and ×400 times respectively, 5 FOVs are taken randomly for each picture, and data statistics is performed.

IL-6 = assay: immunohistochemistry of IL-6 in spleen and thymus, AIA transgenic TNF-luc mice; assay type: in vivo, BALB/c transgenic TNF-luc mice; conditions: Adalimumab 8 mg/kg, mPEG-SC20k-HM-3 20 mg/kg
Experimental: as §1

With “mPEG-SC20k-Ile-Val-Arg-Arg-Ala-Asp-Arg-Ala-Ala-Val-Pro-Gly-Gly-Gly-Gly-Arg-Gly-Asp ({mPEG‑SC 20k}-IVRRADRAAVPGGGGRGD) [polypeptide III, No. 3]” the left ankle swelling ([1]; 0 d) was 0.000 ± 0.000 cm, the “right ankle swelling changes” value ([1]; 0 d) was 0.000 ± 0.000 cm and the left ankle swelling ([1]; 12 d) was 0.011 ± 0.004 cm. For the same substance, the “right ankle swelling changes” value ([1]; 12 d) was 0.005 ± 0.021 cm, the left ankle swelling ([1]; 15 d) was 0.028 ± 0.023 cm and the “right ankle swelling changes” value ([1]; 15 d) was 0.003 ± 0.004 cm. The left ankle swelling ([1]; 18 d) was 0.016 ± 0.008 cm, the “right ankle swelling changes” value ([1]; 18 d) was 0.011 ± 0.016 cm and the left ankle swelling ([1]; 21 d) was 0.011 ± 0.010 cm. For the same substance, the “right ankle swelling changes” value ([1]; 21 d) was 0.010 ± 0.011 cm, the left ankle swelling ([1]; 24 d) was 0.008 ± 0.006 cm and the “right ankle swelling changes” value ([1]; 24 d) was 0.007 ± 0.005 cm. The left ankle swelling ([1]; 27 d) was 0.009 ± 0.004 cm, the “right ankle swelling changes” value ([1]; 27 d) was 0.004 ± 0.014 cm and the left ankle swelling ([1]; 30 d) was 0.003 cm. The “right ankle swelling changes” value ([1]; 30 d) was 0.015 ± 0.001 cm, the arthritis index score ([1]; 30 d) was 5.50 ± 0.71 and the clinical score ([1]; 30 d) was 4.50 ± 0.71. For the same substance, the left ankle swelling ([1]; 33 d) was 0.007±0.013 cm, the “right ankle swelling changes” value ([1]; 33 d) was 0.018 ± 0.020 cm and the arthritis index score ([1]; 33 d) was 7.00 ± 1.41. The clinical score ([1]; 33 d) was 4.00 ± 0.00, the left ankle swelling ([1]; 36 d) was 0.006 ± 0.006 cm and the “right ankle swelling changes” value ([1]; 36 d) was 0.006 ± 0.008 cm. It also gave an arthritis index score ([1]; 36 d) of 6.50 ± 0.71, a clinical score ([1]; 36 d) of 4.00 ± 0.00 and a left ankle swelling ([1]; 39 d) of 0.026±0.023 cm. For the same substance, the “right ankle swelling changes” value ([1]; 39 d) was 0.001 ± 0.007 cm, the arthritis index score ([1]; 39 d) was 6.00 ± 0.00 and the clinical score ([1]; 39 d) was 4.00 ± 0.00. The left ankle swelling ([1]; 42 d) was 0.004 ± 0.006 cm, the “right ankle swelling changes” value ([1]; 42 d) was 0.017 ± 0.004 cm and the arthritis index score ([1]; 42 d) was 4.50 ± 0.71. For the same substance, the clinical score ([1]; 42 d) was 4.00 ± 0.00, the left ankle swelling ([1]; 45 d) was 0.011±0.004 cm and the “right ankle swelling changes” value ([1]; 45 d) was 0.000 ± 0.006 cm. For the same substance, the arthritis index score ([1]; 45 d) was 4.50 ± 0.71, the clinical score ([1]; 45 d) was 4.00 ± 0.00 and the left ankle swelling ([1]; 48 d) was 0.001±0.021 cm. For the same substance, the “right ankle swelling changes” value ([1]; 48 d) was 0.001 ± 0.007 cm, the arthritis index score ([1]; 48 d) was 4.50 ± 0.71 and the clinical score ([1]; 48 d) was 5.00 ± 0.00. The left ankle swelling ([1]; 51 d) was 0.023±0.007 cm and 0.023 cm, the “right ankle swelling changes” value ([1]; 51 d) was 0.005 ± 0.007 cm and the arthritis index score ([1]; 51 d) was 4.50 ± 0.71. For the same substance, the clinical score ([1]; 51 d) was 4.00 ± 0.00, the systemic score ([1]; day 33) was 4.00±0.00 and the joint index score ([1]; day 36) was 6.50±0.71. For the same substance, the “swelling degree of right ankle” value ([1]; day 36) was 0.006±0.008, the systemic score ([1]; day 36) was 4.00±0.00 and the joint index score ([1]; day 39) was 6.00±0.00. For the same substance, the “swelling degree of right ankle” value ([1]; day 39) was 0.001±0.008, the systemic score ([1]; day 39) was 4.00±0.00 and the joint index score ([1]; day 42) was 4.50±0.7. For the same substance, the “swelling degree of right ankle” value ([1]; day 42) was 0.001±0.007, the systemic score ([1]; day 42) was 4.00±0.00 and the joint index score ([1]; day 45) was 4.50±0.71. The “swelling degree of right ankle” value ([1]; day 45) was 0.000±0.006, the systemic score ([1]; day 45) was 4.00±0.00 and the joint index score ([1]; day 48) was 4.50±0.71. For the same substance, the “swelling degree of right ankle” value ([1]; day 48) was 0.001±0.007, the joint index score ([1]; day 51) was 4.50±0.71 and the “swelling degree of right ankle” value ([1]; day 51) was 0.005±0.007. For the same substance, the systemic score ([1]; day 51) was 4.00±0.00, the “immunohistochemical score of TNF-α in ankle joint cavity” value (TNF-α [2]) was 0.143±0.055 and the “in vivo fluorescence densities” value (TNF-α [3]) was 19.02±9.69 10^5. The “immunohistochemical score of TNF-α in ankle joint cavity” value (TNF-α [4]) was 0.149±0.047, the “immunohistochemical score of IL-6 in spleen” value (IL-6) was 0.006±0.002 and the “immunohistochemical score of IL-6 in thymus” value (IL-6) was 0.068±0.033.
